Source: patent EP4592286A1, “MACROCYCLIC NITROGEN-CONTAINING CROWN ETHER COMPOUND AND USE THEREOF AS PROTEIN KINASE INHIBITOR” (Artivila Biopharma, priority 2022, dated 2024)
≈ marks a conversion by molar mass, not a printed value.

How the values were obtained:
MV-4-11 cells = experiment: CDK9 cell activity test (Cell Titer-GLO cell growth inhibition), MV-4-11; assay type: cell-based; details: Homo sapiens, MV4-11, 72 hours
Experimental: In these experiments, the cell line MV-4-11 was cultured in IMDM culture solution (containing 100 U/mL penicillin and 0.1 g/L streptomycin), the cell line HCC1187 was cultured in RPMI-1640 culture solution (containing 100 U/mL penicillin and 0.1 g/L streptomycin) containing 10% fetal bovine serum, the cell line Mia Paca-2 was cultured in DMEM (containing 100 U/mL penicillin and 0.1 g/L streptomycin) containing 10% fetal bovine serum and 2.5% horse serum, and the cell line A375 was cultured in RPMI-1640 culture solution (containing 100 U/mL penicillin and 0.1 g/L streptomycin) containing 10% fetal bovine serum. All cells were cultured in a saturated humidity incubator with 37 °C and 5% CO2.
When MV-4-11 cells, HCC-1187 cells, Mia Paca-2 cells and A375 cells grew to 80% -90% confleuncy, they were digested with trypsin, resuspended, counted and diluted to a certain cell density with complete medium, and inoculated into 96-well plate at 100 µL/well. With complete medium as background control, they were cultured overnight in a saturated humidity incubator with 37°C and 5% CO2. The compound was diluted to 200-fold of the final concentration using DMSO, 3 µL of DMSO storage solution of the above compound was added to 197 µL of complete medium, 50 µL of compound diluted in medium was added to cells in each well, and cultivated in a saturated humidity incubator with 37°C and 5% CO2 for 72 hours. After 72 hours, the culture plate was placed at room temperature for equilibrium, and 40 µl of Cell Titer-GLO® reagent was added to each well. The cells were lysed by mixing evenly for 2 minutes using a shaker, incubated at room temperature for 60 minutes to stabilize the chemiluminescence signal, and the chemiluminescence was read by PE EnVision microtiter plate reader. The cell growth inhibition rate Inh%=(DMSO well - compound treatment well)/(DMSO well - background well)×100 was calculated, and the cell growth IC50 value was obtained by fitting with GraphPad Prism 5 .

CDK9 = CDK9 (Homo sapiens, UniProt P50750); experiment: experiment of inhibiting kinase activity (Caliper mobility shift assay), CDK9; assay type: biochemical; details: for inhibition at 0.01 µM: at 10 nM; for IC50: kinase activity assay, Table 3
How it was run: (§1)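 Inhibition is measured as reduced conversion of substrate by the kinase, separated by microfluidic mobility shift after a room-temperature reaction started with ATP/substrate following a 10-min compound preincubation. Test doses are 10 nM, 100 nM, or a 10-point 3-fold series from 10 µM.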

JAK2 = JAK2 (Homo sapiens, UniProt O60674); experiment: experiment of inhibiting kinase activity (Caliper mobility shift assay), JAK2; assay type: biochemical; details: read-out: inhibition rate JAK2; for inhibition at 0.01 µM: at 10 nM
How it was run: as §1

TYK2 = TYK2 (Homo sapiens, UniProt P29597); experiment: experiment of inhibiting kinase activity, TYK2; assay type: biochemical; details: read-out: inhibition rate TYK2; for inhibition at 0.01 µM: at 10 nM
Experimental: (§2) The inhibition rates of tested compounds on JAK1, JAK2, JAK3, TYK2, CDK7, CDK9, EGFR (T790M) and LRRK2 kinases were measured. The test concentrations of the compounds were 10 nM and 100 nM, and the detection was performed by replicate wells. Alternatively, compounds were 3-fold serial diluted from 10 µM for 10 concentrations in replicate wells.

LRRK2 (G2019S) = target: T1, LRRK2 (G2019S) (Homo sapiens, UniProt Q5S007, G2019S); experiment: detection of phosphorylated S935 in HEK293T overexpressing full-length LRRK2 (G2019S); assay type: cell-based; details: pS935, HEK293T overexpressing LRRK2 (G2019S), 1.5 hours
T1 construct: pcDNA5-FRT/TO-FLAG LRRK2 (G2019S, full-length); expressed in transfected cells; host or cells: HEK293T
Experimental: (§3) Detection of phosphorylated S935 in HEK293T Overexpressing full-length LRRK2 (G2019S) or wild-type LRRK2
(§4) HEK293T cells was inoculated into a 6-well plate and cultured overnight. The next day, they were transiently transfected with plasmid pcDNA5-FRT/TO-FLAG LRRK2 (G2019S, full-length) or pCMV-flag-WT LRRK2 (full-length) by using Superfect transfection reagent and cultured at 37°C and 5% CO2 for 20-24 hours. The next day, cells were collected, resuspended at a density of 0.48×10^6 cells/ml, and inoculated into a 384-well plate at 50 microliters/well. Compound or DMSO solutions (volume ratio of 0.5%) were added by Tecan, and cultured at 37°C and 5% CO2 for 1.5 hours. After 1.5 hours, the supernatant was discarded, 50 microliters of 8% PFA were added in each well to fix the cells, and the cells were incubated at room temperature for 1 hour. The plate was washed with EL406 plate washer for three times, with 115 microliters of PBST per well, and the culture plate was patted to dryness. The cells were blocked with 50 microliters/well of Licor Odyssey blocking solution (0.1% Tween 20) at room temperature for 1.5 hours. The blocking solution was discarded and the culture plate was patted to dryness. 20 microliters of primary antibody (1:1000(pS935), diluted with Licor Odyssey buffer (0.1% Tween20)) was added into each well, and incubated at 4 °C overnight. The next day, the first antibody was discarded and washing was performed with PBST for five times. 20 microliters of secondary antibody (diluted with Licor Odyssey buffer (0.1% Tween20) at 1:500 and stained with DNA at 1:2000) were added into each well, and incubated at room temperature for 1 hour. The second antibody was discarded, and washing was performed for three times with PBST. The fluorescence intensity was measured by LICOR Odyssey imager Scanner, and the data was analyzed.

JAK1 = JAK1 (Homo sapiens, UniProt P23458); experiment: experiment of inhibiting kinase activity (Caliper mobility shift assay), JAK1; assay type: biochemical; details: read-out: inhibition rate JAK1; for inhibition at 0.01 µM: at 10 nM
How it was run: as §1

wild-type LRRK2 = target: T2, wild-type LRRK2 (Homo sapiens, UniProt Q5S007); experiment: detection of phosphorylated S935 in HEK293T overexpressing wild-type LRRK2; assay type: cell-based; details: pS935, HEK293T overexpressing wild-type LRRK2, 1.5 hours
T2 construct: pCMV-flag-WT LRRK2 (full-length); expressed in transfected cells; host or cells: HEK293T
Experimental: as §3, §4

LRRK2 = LRRK2 (Homo sapiens, UniProt Q5S007); experiment: experiment of inhibiting kinase activity, LRRK2; assay type: biochemical; details: for IC50: kinase activity assay, Table 3
Experimental: as §2

[1] = measurement of the solubility of compounds in water and diluted hydrochloric acid; assay type: physicochemical; details: thermodynamic from solid
Experimental: Example 117: measurement of the solubility of compounds in water and diluted hydrochloric acid
The compounds were dissolved in acetonitrile (LCMS pure) and prepared into standard samples having the concentration gradient of 1000 µg/mL, 500 µg/mL, 250 µg/mL, 125 µg/mL, 62.5 µg/mL, and 31.25 µg/mL.
(§5) About 1.0 mg of the powder of the compound to be tested was weighed and added to 0.3 mL of ultrapure water (pH-6), the resulting mixture was shaked thoroughly at room temperature overnight and centrifuged, and the supernatant was taken and diluted 10 times with acetonitrile. The sample was analyzed after mixing evenly.
as §5, with “153.8 µL of 6 M HCl was pipetted, 20 mL of water was added, and mixed evenly to prepare diluted hydrochloric acid solution A (pH-1.5). About” for “About”, “diluted hydrochloric acid solution A,” for “ultrapure water (pH-6),”, “for 1 hour” for “overnight”
The standard sample and the sample to be tested were analyzed by Shimadzu LCMS-2020, where chromatographic column was Skim-psck GIST 5 µm C18 2.1*[…]; mobile phase A was water and mobile phase B was methanol; and flow rate was 0.3 mL/min. The gradient of B was as the following: 0 min: 10%; 0-1.0 min: 10%; 1.0-2.5 min: 95%; 3.0-4.0 min: 95%; 4.0-4.1 min: 10%; 4.1-6.0 min: 10%.
The relationship between the concentration and peak area of the standard sample was ploted into a standard curve, and the concentration of the sample to be tested was calibrated using this standard curve. Compound solubility = concentration of the sample to be tested × 10 [formula]

CDK7 = CDK7 (Homo sapiens, UniProt P50613); experiment: experiment of inhibiting kinase activity (Caliper mobility shift assay), CDK7; assay type: biochemical; details: at 100 nM; read-out: inhibition rate CDK7
How it was run: as §1

JAK3 = target: T3, JAK3 (Homo sapiens, UniProt P52333); experiment: experiment of inhibiting kinase activity (Caliper mobility shift assay), JAK3; assay type: biochemical; details: at 100 nM; read-out: inhibition rate JAK3
T3 sequence (P52333 1-1124): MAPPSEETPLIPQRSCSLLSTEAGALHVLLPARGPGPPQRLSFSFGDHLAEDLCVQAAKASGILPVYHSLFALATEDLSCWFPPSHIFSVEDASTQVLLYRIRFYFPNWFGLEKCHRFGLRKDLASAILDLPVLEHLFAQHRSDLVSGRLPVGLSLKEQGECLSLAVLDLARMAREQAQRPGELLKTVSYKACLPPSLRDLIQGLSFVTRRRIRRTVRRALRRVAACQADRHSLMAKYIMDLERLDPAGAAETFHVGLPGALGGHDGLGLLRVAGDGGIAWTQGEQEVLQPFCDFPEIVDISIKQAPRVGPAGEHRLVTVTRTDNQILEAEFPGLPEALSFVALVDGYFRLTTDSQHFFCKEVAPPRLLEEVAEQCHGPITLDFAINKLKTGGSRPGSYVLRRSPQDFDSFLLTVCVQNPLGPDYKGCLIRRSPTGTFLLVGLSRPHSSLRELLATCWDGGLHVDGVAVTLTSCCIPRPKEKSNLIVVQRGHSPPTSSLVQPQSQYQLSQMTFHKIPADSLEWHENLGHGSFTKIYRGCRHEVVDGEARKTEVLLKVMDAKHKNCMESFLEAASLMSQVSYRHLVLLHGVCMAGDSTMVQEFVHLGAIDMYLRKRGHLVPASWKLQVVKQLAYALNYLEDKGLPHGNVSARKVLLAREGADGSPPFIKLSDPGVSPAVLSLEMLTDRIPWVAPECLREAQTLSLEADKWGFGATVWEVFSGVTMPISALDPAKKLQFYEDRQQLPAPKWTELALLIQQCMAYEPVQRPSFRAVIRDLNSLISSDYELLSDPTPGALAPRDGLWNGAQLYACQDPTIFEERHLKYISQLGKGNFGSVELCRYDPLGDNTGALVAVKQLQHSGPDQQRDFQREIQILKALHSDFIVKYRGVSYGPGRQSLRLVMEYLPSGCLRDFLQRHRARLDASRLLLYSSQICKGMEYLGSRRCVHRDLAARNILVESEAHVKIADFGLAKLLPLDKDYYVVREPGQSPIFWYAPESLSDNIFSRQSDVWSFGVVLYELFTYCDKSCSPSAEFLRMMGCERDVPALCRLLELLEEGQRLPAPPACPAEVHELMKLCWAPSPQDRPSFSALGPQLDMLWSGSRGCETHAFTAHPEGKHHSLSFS
How it was run: as §1

Chain of CDK9 (P50750 whole entry): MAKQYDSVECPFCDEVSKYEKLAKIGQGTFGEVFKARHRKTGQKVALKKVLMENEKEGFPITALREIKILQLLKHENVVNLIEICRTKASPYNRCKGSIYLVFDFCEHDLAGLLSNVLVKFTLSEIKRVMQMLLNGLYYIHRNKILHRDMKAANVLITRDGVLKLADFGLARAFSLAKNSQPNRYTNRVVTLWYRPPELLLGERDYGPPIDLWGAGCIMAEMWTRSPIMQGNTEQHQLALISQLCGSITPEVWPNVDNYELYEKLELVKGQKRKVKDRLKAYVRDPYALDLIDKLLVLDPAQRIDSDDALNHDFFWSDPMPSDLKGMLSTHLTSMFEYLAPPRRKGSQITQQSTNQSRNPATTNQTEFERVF
Chain of CDK9 (O60563 whole entry partner): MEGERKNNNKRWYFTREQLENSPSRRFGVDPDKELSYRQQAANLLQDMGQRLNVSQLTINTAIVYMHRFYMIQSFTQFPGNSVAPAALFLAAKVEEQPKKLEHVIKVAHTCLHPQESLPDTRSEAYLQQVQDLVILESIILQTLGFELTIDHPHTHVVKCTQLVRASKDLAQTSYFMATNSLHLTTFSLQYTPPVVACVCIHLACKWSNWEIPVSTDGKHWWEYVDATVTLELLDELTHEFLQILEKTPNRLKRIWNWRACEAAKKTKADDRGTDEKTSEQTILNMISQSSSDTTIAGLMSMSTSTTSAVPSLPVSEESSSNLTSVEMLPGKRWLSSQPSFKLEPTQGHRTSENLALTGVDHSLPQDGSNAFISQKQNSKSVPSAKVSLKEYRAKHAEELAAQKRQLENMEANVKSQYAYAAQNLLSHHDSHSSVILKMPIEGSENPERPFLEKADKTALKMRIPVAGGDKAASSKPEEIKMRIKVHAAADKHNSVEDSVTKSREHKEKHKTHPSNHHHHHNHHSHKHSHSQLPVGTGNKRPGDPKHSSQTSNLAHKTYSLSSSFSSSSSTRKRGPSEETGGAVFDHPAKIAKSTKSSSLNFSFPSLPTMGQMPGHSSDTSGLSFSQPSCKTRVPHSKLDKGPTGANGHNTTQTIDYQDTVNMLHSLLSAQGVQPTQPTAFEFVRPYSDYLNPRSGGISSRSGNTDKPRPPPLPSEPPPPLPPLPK
Chain of JAK1 (P23458 whole entry): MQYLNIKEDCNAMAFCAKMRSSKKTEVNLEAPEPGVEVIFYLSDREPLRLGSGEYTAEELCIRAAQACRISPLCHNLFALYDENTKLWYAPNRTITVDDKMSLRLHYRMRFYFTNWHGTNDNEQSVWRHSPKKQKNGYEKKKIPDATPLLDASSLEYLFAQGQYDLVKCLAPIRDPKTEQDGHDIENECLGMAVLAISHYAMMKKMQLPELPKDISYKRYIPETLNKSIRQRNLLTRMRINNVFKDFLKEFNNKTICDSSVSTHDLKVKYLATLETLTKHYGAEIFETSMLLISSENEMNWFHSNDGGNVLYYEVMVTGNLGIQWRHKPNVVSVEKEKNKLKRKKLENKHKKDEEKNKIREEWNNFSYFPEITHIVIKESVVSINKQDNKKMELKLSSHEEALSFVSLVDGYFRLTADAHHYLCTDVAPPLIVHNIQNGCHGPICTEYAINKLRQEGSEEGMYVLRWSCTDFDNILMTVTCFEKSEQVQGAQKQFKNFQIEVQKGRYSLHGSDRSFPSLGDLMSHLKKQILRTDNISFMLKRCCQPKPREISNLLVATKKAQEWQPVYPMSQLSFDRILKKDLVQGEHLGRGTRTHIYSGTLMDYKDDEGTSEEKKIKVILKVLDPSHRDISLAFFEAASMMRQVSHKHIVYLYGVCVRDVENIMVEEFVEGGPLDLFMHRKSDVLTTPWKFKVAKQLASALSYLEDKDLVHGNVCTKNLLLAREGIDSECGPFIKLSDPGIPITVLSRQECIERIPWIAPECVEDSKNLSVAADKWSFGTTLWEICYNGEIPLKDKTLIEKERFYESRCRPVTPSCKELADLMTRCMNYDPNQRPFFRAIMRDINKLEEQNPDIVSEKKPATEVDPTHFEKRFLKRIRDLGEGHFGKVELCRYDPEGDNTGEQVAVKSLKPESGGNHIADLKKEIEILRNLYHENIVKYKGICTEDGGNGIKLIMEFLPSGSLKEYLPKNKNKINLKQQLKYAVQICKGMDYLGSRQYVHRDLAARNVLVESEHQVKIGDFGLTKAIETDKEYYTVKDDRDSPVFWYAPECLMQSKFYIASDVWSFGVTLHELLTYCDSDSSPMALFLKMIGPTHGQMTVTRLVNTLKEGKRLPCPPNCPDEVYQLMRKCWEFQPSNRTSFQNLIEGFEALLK
Chain of TYK2 (P29597 whole entry): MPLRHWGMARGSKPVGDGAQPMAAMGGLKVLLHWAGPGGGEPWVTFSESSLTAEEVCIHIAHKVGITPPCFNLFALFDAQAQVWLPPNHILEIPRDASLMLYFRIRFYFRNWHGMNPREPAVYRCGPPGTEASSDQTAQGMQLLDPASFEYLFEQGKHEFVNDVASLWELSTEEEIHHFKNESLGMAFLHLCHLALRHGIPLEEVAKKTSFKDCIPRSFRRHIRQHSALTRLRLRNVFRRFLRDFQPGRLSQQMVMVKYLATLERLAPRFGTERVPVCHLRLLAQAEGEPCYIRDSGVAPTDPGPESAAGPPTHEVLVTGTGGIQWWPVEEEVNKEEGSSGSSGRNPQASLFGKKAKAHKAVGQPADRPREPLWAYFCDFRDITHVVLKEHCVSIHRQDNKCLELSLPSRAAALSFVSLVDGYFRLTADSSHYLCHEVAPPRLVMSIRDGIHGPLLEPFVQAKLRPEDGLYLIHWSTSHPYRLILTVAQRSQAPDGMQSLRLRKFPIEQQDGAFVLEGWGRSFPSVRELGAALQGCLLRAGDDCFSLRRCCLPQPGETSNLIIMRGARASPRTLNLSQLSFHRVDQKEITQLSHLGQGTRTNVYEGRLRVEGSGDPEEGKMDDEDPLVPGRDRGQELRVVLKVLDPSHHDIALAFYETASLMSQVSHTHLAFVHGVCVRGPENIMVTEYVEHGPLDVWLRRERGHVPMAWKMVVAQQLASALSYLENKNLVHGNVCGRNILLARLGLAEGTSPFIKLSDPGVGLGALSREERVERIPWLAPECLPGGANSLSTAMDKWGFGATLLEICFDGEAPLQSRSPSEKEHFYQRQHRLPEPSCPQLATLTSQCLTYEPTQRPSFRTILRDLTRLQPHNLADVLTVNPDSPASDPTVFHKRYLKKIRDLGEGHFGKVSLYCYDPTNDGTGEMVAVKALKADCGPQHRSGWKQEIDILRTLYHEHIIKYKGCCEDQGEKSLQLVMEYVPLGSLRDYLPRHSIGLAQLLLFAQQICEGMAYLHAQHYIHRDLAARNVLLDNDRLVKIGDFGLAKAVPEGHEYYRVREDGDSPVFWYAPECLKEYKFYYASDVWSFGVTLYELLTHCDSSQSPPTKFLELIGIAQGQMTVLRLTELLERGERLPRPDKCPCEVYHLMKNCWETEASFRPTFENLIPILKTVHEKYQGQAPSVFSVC
Chain of JAK2 (O60674 whole entry): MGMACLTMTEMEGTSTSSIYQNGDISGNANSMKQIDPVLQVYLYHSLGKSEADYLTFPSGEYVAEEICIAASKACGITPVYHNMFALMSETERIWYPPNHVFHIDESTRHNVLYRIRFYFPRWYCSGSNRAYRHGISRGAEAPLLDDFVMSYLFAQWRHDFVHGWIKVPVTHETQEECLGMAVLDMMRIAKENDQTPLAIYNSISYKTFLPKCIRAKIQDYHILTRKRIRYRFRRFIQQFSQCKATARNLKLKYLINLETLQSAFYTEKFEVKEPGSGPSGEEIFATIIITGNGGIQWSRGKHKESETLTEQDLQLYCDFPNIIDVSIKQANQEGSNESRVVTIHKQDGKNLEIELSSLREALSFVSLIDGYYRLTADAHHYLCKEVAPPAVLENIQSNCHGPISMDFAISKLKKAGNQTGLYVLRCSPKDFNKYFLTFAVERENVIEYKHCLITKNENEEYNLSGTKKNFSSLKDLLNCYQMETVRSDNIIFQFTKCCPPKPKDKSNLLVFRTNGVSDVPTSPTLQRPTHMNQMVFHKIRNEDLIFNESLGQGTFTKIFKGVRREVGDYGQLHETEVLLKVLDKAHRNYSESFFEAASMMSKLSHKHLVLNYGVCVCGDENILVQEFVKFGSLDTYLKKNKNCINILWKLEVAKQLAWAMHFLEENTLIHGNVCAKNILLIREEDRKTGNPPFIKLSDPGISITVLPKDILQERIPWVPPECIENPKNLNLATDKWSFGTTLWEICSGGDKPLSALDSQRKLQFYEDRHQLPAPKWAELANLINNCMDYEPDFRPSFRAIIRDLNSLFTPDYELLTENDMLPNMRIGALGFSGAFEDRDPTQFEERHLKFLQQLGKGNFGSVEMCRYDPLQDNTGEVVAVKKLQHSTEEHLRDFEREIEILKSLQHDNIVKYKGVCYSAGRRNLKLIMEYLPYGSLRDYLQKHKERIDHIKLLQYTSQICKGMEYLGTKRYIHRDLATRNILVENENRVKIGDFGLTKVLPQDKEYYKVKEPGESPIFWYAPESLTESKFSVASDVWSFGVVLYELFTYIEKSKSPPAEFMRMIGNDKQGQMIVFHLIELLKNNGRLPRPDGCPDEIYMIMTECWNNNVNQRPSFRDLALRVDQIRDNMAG

Row | Compound | IC50 (MV-4-11 cells) [nM] | inhibition at 0.01 µM (CDK9; read-out: inhibition rate CDK9) [%] | IC50 (CDK9) [nM] | inhibition at 0.01 µM (JAK2) [%] | inhibition at 0.01 µM (TYK2) [%] | EC50 (LRRK2 (G2019S)) [nM] | inhibition at 0.01 µM (JAK1) [%] | EC50 (wild-type LRRK2) [nM] | inhibition at 0.01 µM (LRRK2; at 10 nM, read-out: inhibition rate LRRK2) [%] | IC50 (LRRK2) [nM] | solubility at 1 h ([1]; simulated gastric fluid, diluted hydrochloric acid solution A (pH-1.5), room temperature, 1 hour) [µg/mL] | solubility ([1]; ultrapure water (pH-6), room temperature overnight) [µg/mL] | inhibition at 0.1 µM (JAK2; at 100 nM) [%] | inhibition at 0.1 µM (CDK7) [%] | inhibition at 0.1 µM (TYK2; at 100 nM) [%] | inhibition at 0.1 µM (JAK1; at 100 nM) [%] | inhibition at 0.1 µM (LRRK2; at 100 nM, read-out: inhibition rate LRRK2) [%] | inhibition at 0.1 µM (CDK9; at 100 nM, read-out: inhibition rate CDK9) [%] | inhibition at 0.1 µM (JAK3) [%]
1 | COc1ccc(F)cc1-c1nc(Nc2ccc3c(c2)OCCN(C)CCOCCO3)ncc1F [Example 114, N-(5-fluoro-4-(5-fluoro-2-methoxyphenyl)pyrimidin-2-yl)-7-methyl-2,3,6,7,8,9-hexahydro-5H-benzo[b][1,4,7]trioxa[10]azacyclododecan-12-amine] | 100 to 1000 | 40 to 79 | < 50 | – | – | – | – | – | – | – | – | – | – | – | – | – | – | – | –
2 | CN1CCOc2ccc(Nc3ncc(C(F)(F)F)c(Nc4ccccc4P(C)(C)=O)n3)cc2OCC1 [Example 83, dimethyl(2-((2-((4-methyl-3,4,5,6-tetrahydro-2H-benzo[b][1,4,7]dioxazolin-9-yl)amino)-5-(trifluoromethyl)pyrimidin-4-yl)amino)phenyl)phosphine oxide] | – | – | – | > 80 | 40 to 79 | < 500 | 25 to 39 | < 500 | > 80 | < 50 | – | – | – | – | – | – | – | – | –
3 | CN1CCOCCOc2ccc(Nc3nc(O[C@H]4CC[C@@](C)(O)CC4)c4cc[nH]c4n3)cc2OCC1 [Example 6, 1-methyl-4-((2-((7-methyl-2,3,6,7,8,9-hexahydro-5H-benzo[b][1,4,7]trioxa[10]azacyclododecan-12-yl)amino)-7H-pyrrolo[2,3-d]pyrimidin-4-yl)oxy)cyclohexanol] | – | – | – | – | – | < 500 | – | < 500 | – | < 50 | > 3070 | 368 (≈ 740 µM) | – | – | – | – | – | – | –
4 | CN1CCOCCOc2ccc(Nc3ncc(F)c(-c4ccc(C(=O)NCC#N)cc4)n3)cc2OCC1 [Example 44, N-(cyanomethyl)-4-(5-fluoro-2-((7-methyl-2,3,6,7,8,9-hexahydro-5H-benzo[b] [1,4,7]trioxa[10]azacyclododecan-12-yl)amino)pyrimidin-4-yl)benzamide] | < 100 | 40 to 79 | < 50 | > 80 | 40 to 79 | – | 25 to 39 | – | – | – | – | – | > 80 | 40 to 79 | > 80 | > 80 | 40 to 79 | > 80 | 40 to 79
